# Assay results reported in patent US20230193348A1, “DPP3 FOR THERAPY GUIDANCE, MONITORING AND STRATIFICATION OF NT-ADM ANTIBODIES IN PATIENTS WITH SHOCK” (4TEEN4 PHARMACEUTICALS GMBH, priority 2020, published 2023).
# What was measured:
# [1] = system: patients with septic shock and elevated adrenomedullin; assay: AdrenOSS-2 phase II clinical trial, 14-day mortality; format: in vivo, human; details: vs placebo
# Text: AdrenOSS-2 is a double-blind, placebo-controlled, randomized, multicenter, proof of concept and dose-finding phase II clinical trial to investigate the safety, tolerability and efficacy of the N-terminal ADM antibody named Adrecizumab in patients with septic shock and elevated adrenomedullin (Geven et al. BMJ Open 2019;9:e024475). In total, 301 patients with septic shock and bio-ADM concentration > 70 pg/mL were randomized (2:1:1) to treatment with a single intravenous infusion over approximately 1 hour with either placebo (n=152), adrecizumab 2 ng/kg (n=72) or adrecizumab 4 ng/kg (n=77). All-cause mortality within 28 (90) days after inclusion was 25.8% (34.8%). Mean age was 68.4 years and 61% were male. For the per protocol analysis, n=294 patients remained eligible, and 14-day all-cause mortality rate was 18.5%.
# In patients treated with Adrecizumab (both doses combined, per protocol population), a trend to lower short term mortality (14 days post admission) was observed compared to placebo (Hazard ratio (HR) 0.701 [0.408-1.21], p=0.100) (FIG. 8).
# [2] = phase I study; cited from earlier work
substance,measurement,setting,value
"Adrecizumab: humanized version of an N-terminal anti-ADM antibody; heavy chain SEQ ID NO: 32, light chain SEQ ID NO: 33",HR 14-day mortality,[1]; patients with DPP3 <40,0.385
same,HR 14-day mortality,[1]; patients with DPP3 <50 (ng/mL on admission),0.426
same,HR 14-day mortality,[1]; patients with DPP3 <60,0.449
same,HR 14-day mortality,[1]; patients with DPP3 <70,0.546
same,HR 14-day mortality,[1]; patients with DPP3 >40,1.35
same,HR 14-day mortality,[1]; patients with DPP3 >50 (ng/mL on admission),1.69
same,HR 14-day mortality,[1]; patients with DPP3 >60,1.62
same,HR 14-day mortality,[1]; patients with DPP3 >70,1.24
same,"safety and tolerability, adverse events",[2],no serious adverse events were observed
